In PubChem BioAssay AID484 (The Scripps Research Institute Molecular Screening Center, 2006):
Active and inactive are the calls of the source. The rule behind the calls is not given here.

What follows are molecules tested against Sphingosine 1-phosphate receptor 3 (Homo sapiens) (UniProt Q99500) (assay: blockade of S1P-driven S1P3 signaling – cell-based, dose response (AID 484)). Conditions: S1P3-expressing cells, antagonist inhibition of S1P response.
Chain of Sphingosine 1-phosphate receptor 3 (Homo sapiens) (Q99500 whole entry, looked up): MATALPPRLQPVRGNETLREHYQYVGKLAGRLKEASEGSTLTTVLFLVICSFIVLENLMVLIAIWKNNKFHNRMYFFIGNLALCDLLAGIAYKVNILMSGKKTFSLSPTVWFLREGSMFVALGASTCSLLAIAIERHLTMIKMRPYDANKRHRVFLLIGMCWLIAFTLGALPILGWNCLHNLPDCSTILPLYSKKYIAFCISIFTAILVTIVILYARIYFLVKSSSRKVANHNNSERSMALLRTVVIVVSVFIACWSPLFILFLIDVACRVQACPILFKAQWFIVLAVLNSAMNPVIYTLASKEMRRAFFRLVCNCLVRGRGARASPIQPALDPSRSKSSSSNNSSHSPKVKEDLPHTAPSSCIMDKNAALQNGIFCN
For `N#CC1=C(N)Oc2cc3c(cc2C1c1ccc(Cl)cc1)OCO3` (stereo unspecified), the IC50 was “inactive”. In the case of `CC(=O)C1=C(C)Nc2ncnn2C1c1ccc(Cl)cc1` (stereo unspecified), the IC50 is reported as > 49.8 µM (inactive). `COC(=O)C1=C(N)Oc2cc(C)n(C)c(=O)c2C1c1ccc(Cl)cc1` (stereo unspecified) was tested, and the IC50 was > 49.8 µM (inactive). `Cc1ccc(S(=O)(=O)N2CC(=NO)C2)cc1` was tested, and the IC50 was > 49.8 µM (inactive). With `COC(=O)C1=C(N)Oc2cc(N(C)C)ccc2C1c1ccccc1OC` (stereo unspecified) the IC50 was > 16.6 µM (inactive). In the case of `CN1CCN(C(=O)OC2c3nccnc3C(=O)N2c2ccc(Cl)cn2)CC1` (stereo unspecified), the IC50 is reported as > 49.8 µM (inactive). For `CC1(C)CC(=O)CC(=Nc2ccc(C(=O)O)cc2)C1`, the IC50 was > 49.8 µM (inactive). In the case of `COc1ccc(CC2C(=O)NC(=O)N(c3ccccc3)C2=O)c(OC)c1` (stereo unspecified), the IC50 is reported as > 49.8 µM (inactive). `O/C(=C\Sc1nnc(Cc2ccccc2)o1)c1ccc(Br)cc1` was tested, and the IC50 was > 49.8 µM (inactive). `COc1cccc(N2C(=O)C(CC(=O)Nc3ccc(F)cc3)N(C3CCCCC3)C2=O)c1` (stereo unspecified) was tested, and the IC50 was > 49.8 µM (inactive). For `COc1ccc(OC)c(C2C(C(C)=O)=C(O)C(=O)N2CCC(=O)O)c1` (stereo unspecified), the IC50 was > 49.8 µM (inactive).
